In patent EP2303911B1, “A SYNTHETIC PEPTIDE CONSISTING OF BONE FORMING PEPTIDE 2(BFP 2) FOR STIMULATING OSTEOBLAST DIFFERENTIATION, AND PHARMACEUTICAL COMPOSITION COMPRISING THE SYNTHETIC PEPTIDE” (Industry Foundation Of Chonnam National University, priority 2008, dated 2012):
No end group written: not given here.

System: cells
Experiment: MTT assay for cytotoxicity
Assay type: cell-based
Conditions: within a range of used concentrations, FIG. 3

VEHDKEFFHPRYHHR [BFP 2, Val-Glu-His-Asp-Lys-Glu-Phe-Phe-His-Pro-Arg-Tyr-His-His-Arg]
cytotoxicity: not toxic to cells
